For this experiment, the system named is Pancreas phospholipase A2 (PLA2). Description: Phospholipase A2 FlashPlate inhibition assay. Type of experiment: biochemical. The settings on record: bilirubin concentration of about 10 mg/L; pH=7.2 (FIG. 1). As for the experimental part: Pancreas phospholipase A2 (PLA2) (SigmaAldrich Cat.# P223), acetylcholinesterase (SigmaAldrich cat.# C0663), acetyleholine chloride (Cat.# A6625), and bilirubin (SigmaAldrich #B4126) were purchased from SigmaAldrich. Bilirubin solution was prepared freshly by dissolving it in dimethyl sulfoxide (DMSO) and further dilutions were made in Tris-HCl buffer (pH 7.4). The sPLA2 activity was determined by the FlashPlate assay procedure described by Do and Kasila (American Biotechnology Laboratory, June 2001, P 51-52). Briefly, phospholipid flash plates (PerkinElmer Life Sciences, cat. #SMP108) were coated with 0.2 mL/well of the substrate of 1-steroyl 2-arachidonyl phosphatidylcholine (PerkinElmer Life Sciences, cat. #NE872). The plate was covered and incubated overnight at room temperature. After the incubation, the wells were aspirated prior to use in the PLA2 assay. The substrate assay buffer contained 50 mM tris-HCl (pH=7.3), 0.2 M NaCl, 0.1 mM CaCl2, 0.1 mM EDTA, 0.02% deoxycholate, 10-50 units/mL PLA2, and final volume 200 μL/well. The bound radioactivity was determined by counting the FlashPlate.

These results are taken from patent US20080070971A1, “Medical Use of Bilirubin and its Structural Analogues” (priority 2006, published 2008).

Structures are written as SMILES.

On to `C=CC1=C(C)C(=Cc2[nH]c(Cc3[nH]c(C=C4NC(=O)C(C)=C4C=C)c(C)c3CCC(=O)O)c(CCC(=O)O)c2C)NC1=O` [bilirubin, 2,7,13,17-tetramethyl-1,19-dioxo-3,18-divinyl-1,10,19,22,23,24-hexahydro-21H-biline-8,12-dipropanoic acid], for which the “inhibition of the PLA2 activity” value is given as “about 80%”.
